Earlier results as cited in US20080253985A1, “Compositions for Lowering Serum Cholesterol and/or Triglycerides” (priority 2005, published 2008).
Read-outs that look alike come from different tables or passages of the source.

Columns and labels:
[1] = dose of 40 mg
[2] = hoFH patients; ezetimibe 10 mg/day added to atorvastatin or simvastatin 80 mg/day
[3] = clinical studies, dosages of 80 mg/day or greater

O=C(NC1CCN(CCCCC2(C(=O)NCC(F)(F)F)c3ccccc3-c3ccccc32)CC1)c1ccccc1-c1ccc(C(F)(F)F)cc1 [BMS-201038, N-(2,2,2-Trifluorethyl)-9-[4-[4-[[[4′-(trifluoromethyl)[1,1′biphenyl]-2-Yl]carbonyl]amino]-1-piperidinyl]butyl]9H-fluorene-9-carboxamide]
adverse events (patients treated with 25 mg/day): gastrointestinal disturbances, abnormalities in liver function, and hepatic steatosis

CC(C)c1c(C(=O)Nc2ccccc2)c(-c2ccccc2)c(-c2ccc(F)cc2)n1CCC(O)CC(O)CC(=O)O (centres unmarked) [atorvastatin, 7-[2-(4-fluorophenyl)-5-(1-methylethyl)-3-phenyl-4-(phenylcarbamoyl)-1H-pyrrol-1-yl]-3,5-dihydroxy-heptanoic acid]
patients achieving goal attainment, LDL <70 mg/dL [1]: 23%

O=C1[C@H](CC[C@H](O)c2ccc(F)cc2)[C@@H](c2ccc(O)cc2)N1c1ccc(F)cc1 [ezetimibe]
total reduction of LDL-C levels [2]: 27%

Cc1cc(C)c2c3ccccc3n(Cc3ccc([C@@H](C(=O)N[C@H](CO)c4ccccc4)C4CCCC4)cc3)c2n1 [implitapide, (2S)-2-cyclopentyl-2-[4-[(2,4-dimethyl-9H-pyrido[2,3-b]indol-9-yl)methyl]phenyl]-N-[(1S)-2-hydroxy-1-phenylethyl]ethanamide]
adverse events [3]: gastrointestinal disturbances, abnormalities in liver function, and hepatic steatosis
therapeutic efficacy [3]: therapeutically effective
